{"source": "patent US20050049224A1", "about": "“Antimicrobial mixtures comprising iodopropynyl compounds and dimethyldithiocarbamate derivatives” (priority 2003, published 2005)", "key": {"[1]": {"test_system": "Aspergillus niger (ATCC 6275)", "test": "Minimum Inhibitory Concentration (MIC) by spiral gradient endpoint plating, with Kull synergistic index", "format": "cell-based", "quoted_text": "Spores were removed from the Aspergillus niger slant by adding a small amount of phosphate buffer pH 7.0 (Thomas Scientific phosphate buffer & magnesium chloride, Lot # 023-0703) and scraping with a sterile nichrome wire loop. This process was repeated twice. Loosened spores were removed from the slant by aseptically pouring them into a sterile bottle containing 30 ml. of phosphate buffer and a volume of roughly 40 ml. of 6-mm, borosilicate glass beads. The bead bottle was shaken to disperse the spores and additional buffer was added to a final volume of 50 ml. Spore density was adjusted in distilled water blanks to that of a 0.5. McFarland nephelometer standard.\nWith the aid of the SGE Software the proper aqueous dilutions of each biocide or test blend were prepared and adjusted to a final volume of 10 ml. Then, 250 micro-liters of each biocide mixture was processed by the spiral plater.\nThe Autoplate 4000 mechanically applied mixtures of test fungicides to 150 MM malt agar plates using an exponential application gradient. Gradients of applied fungicides were allowed to completely diffuse into the surface of the agar (1 to 4 hours at room temperature 23° C.) before inoculating the plates with fungi. […]\nFollowing incubation, visible growth of the test organism was observed on a portion of the radial streak and ended where the concentration of biocide was high enough to prevent growth. This growth endpoint was used by the SGE software to compute the exact MIC expressed as parts per million (PPM) of active fungicide. […]\nElisman, H. D. Sylwestrowicz and P. K. Mayer, in Applied Microbiology, 9:538 (1961) where: • Qa=the quantity of A used in a binary mixture that gives the desired effect. • QA=the quantity of A which when used alone gives the desired effect. • Qb=the quantity of B used in a binary mixture that gives the desired effect. • QB=the quantity of B which when used alone gives the desired effect.\nThe synergistic index (SI) for each mixture was determined by the equation SI=Qa/QA+Qb/QB."}, "Aspergillus niger": {"test_system": "Aspergillus niger", "test": "Fungal growth on acrylic/vinyl acrylic white house paint film on filter paper", "format": "cell-based", "settings": "0.06% actives in paint, four weeks 28° C., scale 1 (no growth touching square) to 15 (totally covered), average of at least 3 runs", "method": "In this example an acrylic, vinyl acrylic white house paint was used as the test medium.\nTest formulations of the actives were prepared for each of the biocide blends to be tested (see tables 2b and 2c) by weighing the appropriate amounts of actives and adding them to the test paint so that in each test formulation the weight of the actives was 20% of the sample and 80% of the sample was paint. Each mixture was then stirred to achieve a homogeneous mixture. These test formulations were then incorporated into the test paint at the rate of 0.3% w/w, i.e. the final level of actives in the paint was 0.06%.\nThe test paints were then applied to a filter paper using a standard 3-mil drawdown bar to insure uniformity of the film. Samples were then dried at room temperature, and placed on agar contained in a Petri dish. The filter papers were then inoculated with a test inoculum of Aspergillus niger. Inoculated filter papers containing the test paints were placed in a constant temperature (28° C.) fungal incubator for four weeks. At the end of the incubation, fungal growth on each test paint was measured and recorded.\nEach test blend was run at least 3 times and each result represents the average of the runs."}, "[2]": {"test_system": "Streptoverticillium reticulans ATCC 25607 (pink stain organism)", "test": "ASTM E 1428-91 pink stain test of flexible PVC film", "settings": "Table 3d, IPBC/Thiram in PVC film, 1000 ppm total; two weeks 28° C.; 0 no stain, 1 trace <10%, 2 slight 10-30%, 3 moderate 30-50%, 4 heavy >50% coverage; average of triplicate", "quoted_text": "In this example a PVC formulation for flexible vinyl film was used as the test medium.\nFive blends were prepared by adding the appropriate amount of the biocide to separate vinyl film form formulations prepared according to Table 3a.\nDifco malt agar was prepared using manufacturers directions. Sterilized agar (30 ML) was poured into sterile plastic 100 mm Petri dishes to provide a solidified agar layer sufficient to nourish the test organism for the duration of the test.\nFollowing inoculation of the agar, a sterile forceps was used to place the test specimen, previously sterilized by a brief dip in boiling water, on the agar. Each test blend was run in triplicate and the result represents the average of the three. The specimen was gently pressed on the surface of the agar to insure good contact. The Petri dishes were covered and incubated for two weeks in a 28° C. incubator.\nFollowing incubation, samples were lifted from the surface of the agar and both sides were examined against a white background for presence of pink staining.\nDegree of staining reported was determined by the area of the sample stained rather than by intensity of the color. […]"}}, "data": [{"smiles": "CCCCNC(=O)OCC#CI", "note": "[IPBC, 3-iodo-2-propynyl butyl carbamate]", "values": [{"measurement": "QA (quantity of A which when used alone gives the desired effect)", "setting": "[1]; MIC of IPBC alone (Table 1a)", "result": 1.08, "unit": "ppm"}, {"measurement": "QA (quantity of A which when used alone gives the desired effect)", "setting": "[1]; MIC of IPBC alone (Table 1b)", "result": 1.08, "unit": "ppm"}, {"measurement": "Fungal Growth", "setting": "Aspergillus niger; Table 2b, IPBC/Ziram", "result": 7.8, "unit": "fungus units"}, {"measurement": "Fungal Growth", "setting": "Aspergillus niger; Table 2c, IPBC/Thiram", "result": 2.8, "unit": "fungus units"}]}, {"smiles": "CN(C)C(=S)SSC(=S)N(C)C", "note": "[Thiram, bis(dimethylthiocarbamoyl) disulfide]", "values": [{"measurement": "QB (quantity of B which when used alone gives the desired effect)", "setting": "[1]; MIC of Thiram alone (Table 1b)", "result": 26.73, "unit": "ppm"}, {"measurement": "Fungal Growth", "setting": "Aspergillus niger; Table 2c, IPBC/Thiram", "result": 13.8, "unit": "fungus units"}, {"measurement": "Pink Stain Rating", "setting": "[2]", "result": 2.0}]}]}
